Test results: US20260097047A1, “Small molecule inhibitors of the ribosome biogenesis factor NVL2” (Board of Regents, The University of Texas System, priority 2023, published 2026)

Test: Drug levels in plasma and tumor at end of efficacy study (NSG mice)
Type: in vivo, mouse
Settings: 3 hours after the last treatment dose, 35 mg/kg IP twice a day for 21 days
Method: Having established the kinetics of MM927 mediated NVL inhibition in xenograft tumors, we administered 35 mg/kg MM927 IP twice a day for 21 days to mice harboring tumors derived from either HCT116 NVL wild type or NVL^R403W cells. […] Taken together, we concluded that the potent, and bioavailable analog MM927 reduces tumor growth in mouse xenografts by inhibiting NVL without toxicity.
Pharmacokinetic studies were performed by dosing 6-7 week old CD-1 female mice with analog MM927 formulated as 10% DMSO/10% Kolliphor EL/10% Solutal/70% D5W via the intraperitoneal route. […] The resulting supernatants were evaluated by LC-MS/MS using a Sciex (Framingham, MA) 4500 Triple Quad coupled to a Shimadzu (Columbia, MD) Prominence LC. Briefly, MM927 was detected in multiple reaction monitoring mode (MRM) using the (m+1) transition 488.059/176.1. […] The concentrations of drug in each time-point sample were quantified using Analyst software (Sciex). […] The limit of quantitation (LOQ) was defined as the lowest concentration at which back calculation yielded a concentration within 20% of theoretical and which was above the LOD. Cmax and AUC values were calculated using the noncompartmental analysis tool of Phoenix WinNonLin (Certara/Pharsight, Sunnyvale, CA). […]

With `CC#CCN1C(=O)c2ccc(F)cc2Sc2cc(NC(=O)c3ccc4oc(=O)n(C)c4c3)ccc21` [MM927, N-(10-(But-2-yn-1-yl)-3-fluoro-11-oxo-10,11-dihydrodibenzo[b,f][1,4]thiazepin-7-yl)-3-methyl-2-oxo-2,3-dihydrobenzo[d]oxazole-5-carboxamide] as the compound, how does the “level in plasma and tumor” value read?
The value was “micromolar levels”.
